The term IC50 denotes the concentration that inhibits the measured activity by half. Lower therefore signals greater potency.

Chain of full-length human PRMT6 (Flag- and His-tagged) (Q96LA8 with tags, fused parts or gaps): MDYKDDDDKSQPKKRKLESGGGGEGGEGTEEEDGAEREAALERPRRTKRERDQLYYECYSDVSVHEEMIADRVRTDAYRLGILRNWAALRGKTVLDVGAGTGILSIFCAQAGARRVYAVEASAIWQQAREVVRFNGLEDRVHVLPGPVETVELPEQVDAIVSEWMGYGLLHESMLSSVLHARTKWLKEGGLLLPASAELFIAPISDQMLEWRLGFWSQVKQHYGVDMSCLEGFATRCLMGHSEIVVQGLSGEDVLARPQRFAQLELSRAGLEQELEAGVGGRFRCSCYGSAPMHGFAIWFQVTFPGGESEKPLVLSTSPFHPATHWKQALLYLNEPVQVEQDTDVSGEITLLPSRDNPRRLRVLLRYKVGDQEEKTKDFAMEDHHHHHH

This test has as its target full-length human PRMT6 (Flag- and His-tagged) (Homo sapiens, UniProt Q96LA8). Put plainly: PRMT6 biochemical assay (3H-SAM Flashplate, histone H4 36-50 K44me1 peptide). Conditions: 1 nM PRMT6, 30 min preincubation, 75 nM peptide. The essentials: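 Flag/His-tagged full-length PRMT6 (1 nM) pre-incubated 30 min RT with compound in 20 mM Bicine pH 7.6, then given 200 nM 3H-SAM, 250 nM cold SAM and 75 nM biotinylated H4 36-50 K44me1 peptide. Methylated peptide captured on streptavidin Flashplates and counted; % inhibition versus DMSO and 1 mM SAH controls, fitted to 3- or 4-parameter curves.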
`CNCCN(C)Cc1cncn1[C@H]1CC[C@@]2(CC1)CC(C)(C)CO2` [compound 76]: the IC50 came to 181 nM.
In turn, `CNCCN(C)Cc1cncn1[C@H]1CC[C@]2(CC1)CC(C)(C)CO2` [compound 98] registered a 50% inhibitory concentration (IC50) of 2790 nM.
`CCC1(CC)C[C@]2(CC[C@@H](c3n[nH]cc3CN(C)CCNC)CC2)OC1=O` [compound 34, (5r,8r)-3,3-diethyl-8-(4-((methyl(2-(methylamino)ethyl)amino)methyl)-1H-pyrazol-3-yl)-1-oxaspiro[4.5]decan-2-one] showed an IC50 of 10.6 nM.
`CNCCN(C)Cc1nn(C)cc1[C@H]1CC[C@]2(CC1)CC(C)(C)CO2` [compound 103]: half-maximal inhibition (IC50) required 405 nM.
Molecule `CNCCN(C)Cc1ncsc1[C@H]1CC[C@@]2(CC1)CC(C)(C)CO2` [compound 83] yielded an IC50 of 62.7 nM.
The molecule `CN(CCN)Cc1c[nH]nc1[C@H]1CC[C@]2(CC1)CC(C)(C)CO2` [compound 106] came in with an IC50 of 12.8 nM.
Molecule `CNCCN(C)Cc1nocc1[C@H]1CC[C@]2(CC1)CC(C)(C)CO2` [compound 118] had an IC50 of 3530 nM.
Consider `CNCCN(C)Cc1nccn1[C@H]1CC[C@@]2(CC1)CC(C)(C)CO2` [compound 69], for which the 50% inhibitory concentration (IC50) amounted to 8040 nM.
The molecule `CNCCN(C)Cc1c(C)noc1[C@H]1CC[C@]2(CC1)CC(C)(C)CO2` [compound 114] came in with an IC50 of 2080 nM.
In turn, `CNCCN(C)Cc1c[nH]nc1C1CCC(C)(C)[C@H](COCCOC)C1` (stereo partly drawn) [compound 35, {2-[({3-[(3R)-3-[(2-methoxyethoxy)methyl]-4,4-dimethylcyclohexyl]-1H-pyrazol-4-yl}methyl)(methyl)amino]ethyl}(methyl)amine] gave an IC50 of 124 nM.
Turning to `CNCCN(C)Cc1cnnn1[C@H]1CC[C@@]2(CC1)CC(C)(C)CO2` [compound 65], the IC50 is over 10000 nM.
Molecule `CNCCN(C)Cc1c[nH]nc1[C@H]1CC[C@@]2(CC1)COC(C)(C)C2` [compound 126, N1-((3-((5r,8r)-3,3-dimethyl-2-oxaspiro[4.5]decan-8-yl)-1H-pyrazol-4-yl)methyl)-N1,N2-dimethylethane-1,2-diamine] showed an IC50 of 39.9 nM.
Consider `Cc1[nH]nc([C@H]2CC[C@]3(CC2)CC(C)(C)CO3)c1CN(C)CCN` [compound 52, N1-((3-((5r,8r)-3,3-dimethyl-1-oxaspiro[4.5]decan-8-yl)-5-methyl-1H-pyrazol-4-yl)methyl)-N1-methylethane-1,2-diamine], for which 202 nM corresponded to half-maximal inhibition (IC50).
Regarding `CNCCN(C)Cc1sc(C)nc1[C@H]1CC[C@]2(CC1)CC(C)(C)CO2` [compound 100], the concentration for half-maximal inhibition (IC50) came to 389 nM.
In turn, `CNCCN(C)Cc1c(Cl)ncn1[C@H]1CC[C@]2(CC1)CC(C)(C)CO2` [compound 97] had a half-inhibitory concentration (IC50) of 3510 nM.
In turn, `CCOCC1(COCC)CCC(c2n[nH]cc2CN(C)CCN(C)C)CC1` [compound 121] gave an IC50 of 79.3 nM.
Then `CNCCN(C)Cc1c[nH]nc1C1CCC2(CC1)CC(C)(C)OC2=O` (stereo not drawn) [compound 125], with 17.4 nM; and `CNCCN(C)Cc1c[nH]nc1[C@H]1CC[C@H](COCC(F)(F)F)CC1` [compound 24, N1,N2-dimethyl-N1-((3-((1r,4r)-4-((2,2,2-trifluoroethoxy)methyl)cyclohexyl)-1H-pyrazol-4-yl)methyl)ethane-1,2-diamine], with 21.6 nM; and `CNCCN(C)Cc1nnc(C)n1[C@H]1CC[C@@]2(CC1)CC(C)(C)CO2` [compound 71], with over 10000 nM.
Then `CNCCN(C)Cc1c[nH]nc1[C@H]1CC[C@@]2(CCN(CCC(C)C)C2=O)CC1` [compound 11, (5r,8r)-2-isopentyl-8-(4-((methyl(2-(methylamino)ethyl)amino)methyl)-1H-pyrazol-3-yl)-2-azaspiro[4.5]decan-1-one], with 18.6 nM; and `CNCCN(C)Cc1c[nH]nc1C1CCC(C)(C)[C@H](OCC(C)C)C1` (stereo partly drawn) [compound 20, ({3-[(3R)-4,4-dimethyl-3-(2-methylpropoxy)cyclohexyl]-1H-pyrazol-4-yl}methyl)(methyl)[2-(methylamino)ethyl]amine], with 74.8 nM.
Then `CNCCN(C)Cc1sc(C)nc1[C@H]1CC[C@@]2(CC1)CC(C)(C)CO2` [compound 78], with 98.4 nM; and `CNCCN(C)Cc1n[nH]cc1[C@H]1CC[C@@]2(CC1)CC(C)(C)CO2` [compound 115], with 41.6 nM; and `CNCCN(C)Cc1c[nH]nc1C1CCC(COCC(C)C)(COCC(C)C)CC1` [compound 6], with 32 nM.

The values are drawn from patent US20170291905A1, “ARGININE […] INHIBITORS AND USES THEREOF” (Epizyme, Inc., priority 2014, published 2017).
